Each structure is given as a SMILES string. A value given as a limit tells only on which side of the number the result lay.

In general, melting point refers to the temperature of the solid-liquid transition. Molecule `COc1ccc(S(=O)(=O)C(CCCc2ccccc2)(CCCc2ccccc2)C(=O)O)cc1` came in with a melting point of 118 to 120 °C.
The molecule `Cc1nc2cc(Nc3nccc(-c4ccc(Cl)nc4)n3)ccc2s1` showed a melting point of 235 to 237 °C.
Under `Oc1ccc(-c2nnc(-c3ccc(O)cc3)o2)cc1` stands 338 °C; under `CCCn1nc(Cc2ccc(-c3ccccc3S(=O)(=O)NC(=O)c3ccccc3)cc2)c(C(=O)O)c1Cc1ccccc1`, 105 to 109 °C; under `CCOC(=O)c1cnc2cc(C)nn2c1N(C)S(=O)(=O)c1ccc(Oc2ccncc2)cc1`, 139 to 144 °C.
The same measure for `O=C1c2ccccc2C(=O)c2c1c(Cl)c1ccc(Sc3ccccc3)cc1c2Cl`: 160 to 163 °C; for `O=C(CCNc1c(C(=O)O)[nH]c2cc(Cl)ccc12)c1ccc(F)c(F)c1`: 260 to 264 °C.
The same measure for `Nc1sc2c(c1C(=O)c1ccc3c(c1)OCO3)CCN(C(=O)c1ccccc1)C2`: 211 to 212 °C.
Molecule `Cc1ccc2[nH]c(C(=O)OCc3ccccc3)cc2c1` displayed a melting point of 150 to 152 °C.
The same measure for `CCOC(=O)C(=O)Nc1nc(CN2CCN(C(c3ccccc3)c3ccccc3)CC2)c(Cl)s1`: 154 to 156 °C.
The molecule `CC(C)c1nc(C(c2ccccc2)c2ccccc2)cc(-c2ccc(F)cc2)c1CO` yielded a melting point of 138 to 140 °C.
Under `COc1ccc(NC(=S)Nc2ccc(NNC=O)cc2)cc1` stands 198 to 200 °C; under `COc1ccc(-c2c(Cl)c(CN3C(=O)CCC3=O)nc3sc4c(c23)CCN(Cc2ccccc2)C4)cc1OC`, 128 to 130 °C; under `CCn1cc(C(=O)O)c(=O)c2cnc(N3CCN(c4ccccc4)CC3)nc21`, 247 to 248 °C.
The same measure for `Clc1ccc2nc(-c3ccsc3)c(I)n2n1`: 203 to 206 °C; for `CC(Br)C(=O)c1ccc2oc(=O)[nH]c2c1` (centres undefined): 191 to 193 °C.
For `O=c1[nH]c2cc(Cl)ccc2c(O)c1Sc1ccccc1Br`, the melting point is > 300 °C.
As to `CCC(Oc1cncc(Br)c1)C(=O)O` (centres undefined), the melting point is 100 to 102 °C.
Under `C#Cc1cnn2c(C(F)F)cc(-c3cccc(C(F)(F)F)c3)nc12` stands 149 °C; under `OCc1cc(O)ccc1/C=C/c1ccc(O)cc1`, 223 to 225 °C.
Under `OCC1OC(n2cnc3c(NN4CCCC4)nc(I)nc32)C(O)C1O` (centres undefined) stands 216 to 217 °C; under `COc1cc2c(c3c1OC(C)(C)C3)C(c1cccc(-c3ccc(NC(=O)CNC(C)=O)cc3)c1)=NC(C)(C)C2`, 218 to 221 °C.
The same measure for `CN(C)c1ccc(C(=O)CCCCC2CCN(Cc3ccccc3)CC2)cc1`: 121 to 123 °C.
In the case of `Cc1nc2cc(C#N)ccc2n1-c1ccc(C(=O)N(C)[C@@H]2CCNC2)cc1`, the melting point lay in the range of 178 to 180 °C.
The same measure for `CCCCN1CCCC1CNC(=O)c1cc(Cl)cc2c1SCCN2C` (centres undefined): 108 to 109 °C; for `Cc1nc(N)c2nc(C)n(CC3(O)CCC3)c2c1C`: > 250 °C.
Under `Cc1ccc(C(N)=S)c2ccccc12` stands 143 to 145 °C.
The same measure for `CCC(O)(c1ccc(OCc2ccccc2)cc1)c1ccc(Cl)cc1Cl` (centres undefined): 56 to 57 °C.
`CCOc1cc2c(cc1OCC)-c1c(OCC)c(OCC)cc3c1C(C2)N(C)CC3O` (centres undefined) registered a melting point of 140 to 142 °C.
The same measure for `COc1ccc(C)c(NC(=O)C(C)=Cc2ccccc2)c1`: 125 to 126 °C; for `COc1cc2c(c(Cl)c1Cl)SCC2O` (centres undefined): 122 to 124 °C; for `Fc1c(F)c(F)c(OC2(c3ccccc3)CCN(Cc3ccccc3)CC2)c(F)c1F`: 80 to 83 °C.
Molecule `CCCc1c(C#N)c(-c2ccc(C#N)cc2)c(C)n1Cc1cnc(Cl)c(COC(=O)CCC(=O)O)c1` yielded a melting point of 167 to 168 °C.
The same measure for `CCCCn1c(=O)c2c(NCC)n[nH]c2n(Cc2ccc(OC)cc2)c1=O`: 234 to 236 °C.

(Values after a melting point compilation (Tetko et al.; mined from patent text by program, amines drawn as free bases though some values may be those of a salt).)
